From patent US4053604A (priority 1975, dated 1977)
Entries after “also recorded” stand apart in the source; their conditions may differ.

Assays:
[1] = in words; cited from earlier work
[2] = respiratory minute volume and mean arterial blood pressure in rats; format: in vivo; details: with phenoperidine, intravenously, doses substantially greater than required for NLA; in words
[3] = onset, duration of activity and cardiovascular effect (general statement); format: in vivo
[4] = respiratory minute volume and mean arterial blood pressure in rats; format: in vivo
Experimental: These effects are less than those encountered with neuroleptics presently available for NLA as evidenced by laboratory experiments in rats in which these cardiovascular parameters are measured before and after the administration of Compound 1 and the neuroleptic agent droperidol, see Table 8.
The Effect of Compound 1 and Droperidol on Respiratory Minute Volume
and Mean Arterial Blood Pressure

[5] = anesthesia time of rats exposed to halothane anesthesia (recovery of righting reflex); format: in vivo, male albino rats (Sprague-Dawley)
Experimental: (§1) The effects of Compound I on halothane-induced anesthesia were assessed using 20 rats for each dose or time interval determination. The experiments were performed on male albino rats (Sprague-Dawley) weighing from 180-220 g. A schematic representation of the apparatus used is illustrated in FIG. 1. The apparatus consists of a rectangular box made of transparent plastic (115 cm long × 28 cm high × 28 cm wide) which is divided into 4 equal chambers by perforated walls. The box rotates around a hollow axis through which gases can be delivered at several proportions from cylinders, through their respective flowmeters. An in-line halothane vaporizer is placed just before the gases reach the chambers. There is an air-tight door to every chamber through which two animals, one treated and one control, are introduced. The gases are delivered at one end of the box and suction is applied to the other end to take up the gases after flowing through the chambers. An in-line water manometer monitors the resulting pressure. This pressure is kept at 0-5 mm H2 O to make certain the gases in the anesthetic chambers remain at atmospheric pressure. The mixture of gases is delivered at a rate of 15 l/min. The inhalation anesthetic gases are delivered for ten minutes prior to the introduction of the animals into the chambers to assure an even distribution in the four chambers. The chambers rotate at four rev/min forcing the animals to tumble and allowing the experimenter to accurately time the loss and recovery of the righting reflex. Induction times are recorded as the time interval elapsed between the beginning of exposure of the animals to the gases and the moment in which they lose their righting reflex.
(§2) Groups of control animals (four at a time) were subjected to halothane concentrations ranging from 0.5 to 2.5% in a mixture of 95% O2 -5% CO2, and the induction times thus obtained were used to calculate concentration-reponse curves. Since a certain time elapsed between putting the first and the last rat into their respective chambers, each animal was timed separately with a stopwatch. […] This intermediate concentration of halothane was then used to study the effects of increasing doses of the test compound on the induction times and anesthesia times.
(§3) The animals were pretreated by administering the test compounds in dosages ranging from 10 to 500 μg/kg, i.v., at 5, 30, 60, 120, 240 and 360 minutes prior to their exposure to halothane. As soon as all animals lost their righting reflex, the O2 -halothane flow was discontinued and replaced by an equal flow of air. The animals were allowed to remain in the rotating chambers until they regained their righting reflex. Anesthesia times were determined as the interval between the time required to lose and the time to regain the righting reflex. Air flushing of the anesthetic chambers was performed after each determination and the entire procedure repeated with another group of animals for the determination of the effect of a new dose or concentration.
(§4) Drugs used in this study include: droperidol, phenoperidine hydrochloride, halothane and Compound I in the form of its hydrochloride salt. Phenoperidine hydrochloride and Compound I (hydrochloride) were dissolved separately in a warm solution of 0.9% sodium chloride. Droperidol was suspended in saline with the aid of a drop ot Tween 80 (Tween 80 is a registered trademark for a complex mixture of polyoxyethylene ethers of mixed partial oleic esters of sorbitol anhydride). Dosages are expressed in this study as the salt form of the compound where applicable. When the experimental protocol called for the concomitant administration of two drugs, these were mixed in the syringe and administered intravenously. The drugs were injected in a volume of 0.1 ml/100 g body weight.
(§5) The statistical analysis of the data was performed using Student's […]. […]

[6] = induction time of rats exposed to halothane anesthesia (loss of righting reflex); format: in vivo, male albino rats (Sprague-Dawley)
Experimental: as §1, §2, §3, §4, §5

[7] = 10 μg/kg i.v., 5 min before 0.75% halothane
[8] = 10 μg/kg i.v., 5 min before 1.0% halothane
[9] = 10 μg/kg i.v., 5 min before 1.5% halothane
[10] = 10 μg/kg i.v., 5 min before 2.0% halothane
[11] = 10 μg/kg i.v., 5 min before 2.5% halothane
[12] = 25 μg/kg i.v., 5 min before 0.75% halothane
[13] = 25 μg/kg i.v., 5 min before 1.0% halothane
[14] = 25 μg/kg i.v., 5 min before 1.5% halothane
[15] = 25 μg/kg i.v., 5 min before 2.0% halothane
[16] = 25 μg/kg i.v., 5 min before 2.5% halothane
[17] = 50 μg/kg i.v., 5 min before 0.75% halothane
[18] = 50 μg/kg i.v., 5 min before 1.0% halothane
[19] = 50 μg/kg i.v., 5 min before 1.5% halothane
[20] = 50 μg/kg i.v., 5 min before 2.0% halothane
[21] = 50 μg/kg i.v., 5 min before 2.5% halothane
[22] = 100 μg/kg i.v., 5 min before 0.75% halothane
[23] = 100 μg/kg i.v., 5 min before 1.0% halothane
[24] = 100 μg/kg i.v., 5 min before 1.5% halothane
[25] = 100 μg/kg i.v., 5 min before 2.0% halothane
[26] = 100 μg/kg i.v., 5 min before 2.5% halothane
[27] = 200 μg/kg i.v., 5 min before 0.75% halothane
[28] = 200 μg/kg i.v., 5 min before 1.0% halothane
[29] = 200 μg/kg i.v., 5 min before 1.5% halothane
[30] = 200 μg/kg i.v., 5 min before 2.0% halothane
[31] = 200 μg/kg i.v., 5 min before 2.5% halothane
[32] = 250 μg/kg i.v., 5 min before 0.75% halothane
[33] = 250 μg/kg i.v., 5 min before 1.0% halothane
[34] = 250 μg/kg i.v., 5 min before 1.5% halothane
[35] = 250 μg/kg i.v., 5 min before 2.0% halothane
[36] = 250 μg/kg i.v., 5 min before 2.5% halothane

CC(C)[C@@]1(O)CCN2C[C@@H]3c4ccccc4CCc4cccc(c43)[C@H]2C1 [Compound 1, (+)(4a,13b-trans)-(3-hydroxy,13b-trans)-3-isopropyl-2,- 3,4,4a,8,9,13b,14-octahydro-lH-benzo[6,7]cyclohepta[1,2,3-de]pyrido[2,1-a]isoquinolin-3-ol]
neuroleptic potency [1]: potent neuroleptic agent | effect on respiratory depression caused by analgesic agents [2]: only slightly changed | effect on the cardiovascular system ([3]; alone or in combination with a suitable analgesic agent, in words): little or no effect on the cardiovascular system | onset of action ([3]; in words): quick onset of action | duration of activity ([3]; relatively short duration): up to four | Change in Mean B.P. as % of Control ([4]; 25 μg/kg): -0.83 ± 0.83 % of Control | Change in Minute Volume as % of Control ([4]; 25 μg/kg): +4.2 ± 1.4 % of Control | Change in Mean B.P. as % of Control ([4]; 100 μg/kg): -4.1 ± 2.6 % of Control | Change in Minute Volume as % of Control ([4]; 100 μg/kg): +6.8 ± 1.9 % of Control | Change in Mean B.P. as % of Control ([4]; 250 μg/kg): -8.9 ± 1.6 % of Control | Change in Minute Volume as % of Control ([4]; 250 μg/kg): +6.6 ± 2.7 % of Control | effect on respiratory minute volume ([4]; in words): only a very small increase in minute volume | effect on mean arterial blood pressure ([4]; upper level of therapeutically effective neuroleptic dosages, in words): minor diminution of blood pressure | Anesthesia time, treated [5, 7]: 3.67 min | Anesthesia time, treated [5, 8]: 3.16 min | Anesthesia time, treated [5, 9]: 3.84 min | Anesthesia time, treated [5, 10]: 4.68 min | Anesthesia time, treated [5, 11]: 5.42 min | Anesthesia time, treated [5, 12]: 3.78 min | Anesthesia time, treated [5, 13]: 3.62 min | Anesthesia time, treated [5, 14]: 4.61 min | Anesthesia time, treated [5, 15]: 5.09 min | Anesthesia time, treated [5, 16]: 5.26 min | Anesthesia time, treated [5, 17]: 5.16 min | Anesthesia time, treated [5, 18]: 4.67 min | Anesthesia time, treated [5, 19]: 4.59 min | Anesthesia time, treated [5, 20]: 4.49 min | Anesthesia time, treated [5, 21]: 4.96 min | Anesthesia time, treated [5, 22]: 6.33 min | Anesthesia time, treated [5, 23]: 5.34 min | Anesthesia time, treated [5, 24]: 4.79 min | Anesthesia time, treated [5, 25]: 5.49 min | Anesthesia time, treated [5, 26]: 5.62 min | Anesthesia time, treated [5, 27]: 6.54 min | Anesthesia time, treated [5, 28]: 5.37 min | Anesthesia time, treated [5, 29]: 4.94 min | Anesthesia time, treated [5, 30]: 5.33 min | Anesthesia time, treated [5, 31]: 5.89 min | Anesthesia time, treated [5, 32]: 6.26 min | Anesthesia time, treated [5, 33]: 5.81 min | Anesthesia time, treated [5, 34]: 5.52 min | Anesthesia time, treated [5, 35]: 5.92 min | Anesthesia time, treated [5, 36]: 6.37 min | Anesthesia time, treated ([5]; 500 μg/kg i.v., 5 min before 1.0% halothane): 5.69 min | increase of anesthesia time ([5]; five minutes after i.v. administration, 1% halothane): approximately 70% | effect on anesthesia time ([5]; halothane, in words): increased considerably | duration of anesthesia effect with added analgesic ([5]; plus 25 μg/kg i.v. phenoperidine hydrochloride, 1% halothane (FIG. 3), in words): potentiates the duration of anesthesia effect | Induction time, treated [6, 7]: 6.66 min | Induction time, treated [6, 8]: 2.67 min | Induction time, treated [6, 9]: 1.32 min | Induction time, treated [6, 10]: 0.72 min | Induction time, treated [6, 11]: 0.57 min | Induction time, treated [6, 12]: 6.30 min | Induction time, treated [6, 13]: 1.86 min | Induction time, treated [6, 14]: 1.02 min | Induction time, treated [6, 15]: 0.71 min | Induction time, treated [6, 16]: 0.58 min | Induction time, treated [6, 17]: 5.77 min | Induction time, treated [6, 18]: 1.62 min | Induction time, treated [6, 19]: 1.03 min | Induction time, treated [6, 20]: 0.75 min | Induction time, treated [6, 21]: 0.57 min | Induction time, treated [6, 22]: 4.05 min | Induction time, treated [6, 23]: 1.37 min | Induction time, treated [6, 24]: 1.13 min | Induction time, treated [6, 25]: 0.69 min | Induction time, treated [6, 26]: 0.54 min | Induction time, treated [6, 27]: 3.48 min | Induction time, treated [6, 28]: 1.31 min | Induction time, treated [6, 29]: 1.03 min | Induction time, treated [6, 30]: 0.64 min | Induction time, treated [6, 31]: 0.57 min | reduction of induction time ([6]; 200 μg/kg, i.v., 1% halothane): approximately 50% | Induction time, treated [6, 32]: 3.72 min | Induction time, treated [6, 33]: 1.67 min | Induction time, treated [6, 34]: 0.91 min | Induction time, treated [6, 35]: 0.67 min | Induction time, treated [6, 36]: 0.60 min | maximum decrease in induction time ([6]; Compound 1 (hydrochloride) alone, i.v., 5 min before 1% halothane (FIG. 2)): 45% | effect on induction time for the anesthetic ([6]; administered prior to anesthetic treatment, in words, listed as Compound I): decreased considerably; also recorded: substantially reduced | decrease in induction time, with phenoperidine ([6]; plus 25 μg/kg, i.v., phenoperidine hydrochloride, 1% halothane (FIG. 2)): about 65%
